Measurements from PubChem BioAssay (NCI).
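How tested: cells in 96-well plates exposed to compound for 48 hours at five concentrations. At the GI50, growth is halved. The concentration for full growth arrest is given as TGI.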

Key:
Assay in all cases: NCI tumour cell line growth inhibition, 48 h
SNB-19 CNS = test system: SNB-19 CNS
SF-268 CNS = test system: SF-268 CNS
UACC-257 melanoma = test system: UACC-257 melanoma
HT29 colon = test system: HT29 colon
HOP-92 NSCLC = test system: HOP-92 NSCLC
MDA-MB-231 breast = test system: MDA-MB-231 breast
ACHN renal = test system: ACHN renal
T-47D breast = test system: T-47D breast
U251 CNS = test system: U251 CNS
DU-145 prostate = test system: DU-145 prostate

Compound	TGI (SNB-19 CNS) [µM]	TGI (SF-268 CNS) [µM]	TGI (UACC-257 melanoma) [µM]	TGI (HT29 colon) [µM]	TGI (HOP-92 NSCLC) [µM]	TGI (MDA-MB-231 breast) [µM]	TGI (ACHN renal) [µM]	TGI (T-47D breast) [µM]	TGI (U251 CNS) [µM]	TGI (DU-145 prostate) [µM]	GI50 (SNB-19 CNS) [µM]	GI50 (SF-268 CNS) [µM]	GI50 (UACC-257 melanoma) [µM]	GI50 (HT29 colon) [µM]	GI50 (HOP-92 NSCLC) [µM]	GI50 (DU-145 prostate) [µM]	GI50 (MDA-MB-231 breast) [µM]	GI50 (ACHN renal) [µM]	GI50 (T-47D breast) [µM]	GI50 (U251 CNS) [µM]
Cc1[nH]c2ccccc2c1-c1cc(-c2cc(-c3c(C)[nH]c4ccccc34)nc(N)n2)nc(N)n1	> 100	> 100	> 100	> 100	> 100	> 100	> 100	> 100	> 100	–	–	–	–	–	–	–	–	–	–	–
C=C1c2[nH]c3ccccc3c2C2C(CC)C1CCN2C (stereo not given)	> 100	> 100	95.6	> 100	> 100	> 100	> 100	> 100	> 100	> 100	–	–	–	–	–	–	–	–	–	–
N#CC(C#N)N=Nc1ccc(Br)cc1	> 100	> 100	7.54	> 38.5	1.84	7.04	7.89	6.75	> 100	> 51.1	27.5	13.1	2.12	3.39	0.249	4.02	1.69	1.99	0.839	16.2
Nc1nc2cc3ccc(C4CC(O)C(CO)O4)cc3cc2c(=O)[nH]1 (stereo not given)	> 100	> 100	> 100	> 100	> 100	> 100	–	> 100	> 100	> 100	> 100	> 100	> 100	> 100	> 100	> 100	> 100	–	> 100	> 100
CC(=O)C1C(=O)NC(=O)C1=O (stereo not given)	> 100	> 100	> 100	> 100	> 100	–	> 100	–	> 100	–	–	–	–	–	–	–	–	–	–	–
C[C@@H]1Cc2c([nH]c3ccccc23)[C@@H](c2c(F)cc(NC3CN(CCCF)C3)cc2F)N1CC(F)(F)CO	23.6	19.5	4.51	15.3	6.36	20.8	17.1	18.5	21.2	20.2	10.3	4.78	1.97	3.7	1.15	6.52	5.24	4.8	1.06	6.1
CC(=O)[O-].[Mn+3].[O-]c1ccccc1C=NCCN=Cc1ccccc1[O-]	> 100	> 100	> 100	> 100	> 100	–	> 100	–	> 100	–	> 100	11.1	51.2	92.3	> 100	–	–	> 100	–	> 100
CC(=O)O[C@@H]1[C@@H](O)C2=C3[C@]4(C)[C@@H]1C(C)(C)C(=O)C[C@@H]4[C@]3(O)[C@H](OC(C)=O)[C@@]1(C[C@@H]1C)C2=O	61.5	81.7	37.2	–	36.6	37.7	43.4	36	40.6	33.8	–	–	–	–	–	–	–	–	–	–
CN(C)CCNC(=O)c1cccc2c(Nc3ccc(S(N)(=O)=O)cc3)c3ccccc3nc12	10.7	7.49	9.83	8.35	7.27	–	5.2	–	4.69	–	–	–	–	–	–	–	–	–	–	–
COC(=O)CCC(=O)Nc1cc(Cl)ccc1Cl	> 100	> 100	> 100	> 100	> 100	–	> 100	–	> 100	–	–	–	–	–	–	–	–	–	–	–
CN(/N=C/c1cccc2cccnc12)c1ccc([N+](=O)[O-])cc1	> 100	> 100	> 100	> 100	> 100	–	> 100	–	–	–	–	–	–	–	–	–	–	–	–	–
O/N=C1/C(=C/c2ccc(Oc3ccccc3)cc2)CCCC1C(NO)c1ccc(Oc2ccccc2)cc1 (stereo not given)	> 100	> 100	> 100	30.5	56.3	–	> 100	–	> 100	–	–	–	–	–	–	–	–	–	–	–
COc1ccc(Cc2cc3c(cc2OCC(=O)O)OCO3)cc1	> 100	> 100	> 100	> 100	> 100	–	> 100	–	–	–	–	–	–	–	–	–	–	–	–	–
Cc1cc2cn3c4ccc(O)cc4[nH]c(=O)c3c2cc1C	1.68	–	1.31	–	1.95	1.22	1.64	–	1.07	0.315	0.0358	–	0.0416	–	0.0723	0.0285	0.071	0.0471	–	0.026
CCOC(=O)C(=O)Nc1ccc(Cl)cc1C	> 100	> 100	> 100	> 100	> 100	–	> 100	–	> 100	–	–	–	–	–	–	–	–	–	–	–
Cc1nc(-c2ccccc2)cc2c1c(=O)oc1ccccc12	> 100	> 100	> 100	> 100	> 100	–	> 100	–	> 100	–	–	–	–	–	–	–	–	–	–	–
O=c1cc(-c2ccccc2)oc2cc(O)cc(O)c12	88.8	74.8	62.3	> 100	38.7	–	33.9	–	87.5	–	–	–	–	–	–	–	–	–	–	–
O=C1c2ccccc2NC1(c1ccccc1)c1c(-c2ccccc2)[nH]c2ccccc12 (stereo not given)	> 100	–	> 100	> 100	> 100	–	> 100	–	> 100	–	–	–	–	–	–	–	–	–	–	–
CN1C(c2ccccc2)CS(=O)(=O)CS1(=O)=O (stereo not given)	> 100	> 100	> 100	> 100	–	–	> 100	–	> 100	–	–	–	–	–	–	–	–	–	–	–
CCN(CC)CCCC(C)Nc1nc(C)cc(Nc2ccc3nc(C)cc(N)c3c2)n1 (stereo not given)	97	50.9	> 100	75.2	–	85.8	> 100	99.4	98.7	> 100	24.7	22.1	36.4	24.4	–	42.4	29	> 100	28.6	26.4
